Measured values as given in ChEMBL document CHEMBL2034976, “Relationship between structure and P-glycoprotein inhibitory activity of dimeric peptides related to the Dmt-Tic pharmacophore” (Bioorg Med Chem Lett, 2012).
Calls of active or inactive are those of the source. The rule behind the calls is not given here.

Key:
K652 = assay: Inhibition of P-gp-mediated rhodamine 123 efflux in doxorubicin-resistant human […] cells at 100 uM treated for 1 hr measured after washout by FACS flow cytometry relative to verapamil; type: cell-based
[1] = Competitive inhibition of P-gp assessed as P-gp-associated ATPase activity at 10 uM by Pgp-GloTM Assay
[2] = Noncompetitive inhibition of P-gp assessed as reduction in P-gp-associated ATPase activity by Pgp-GloTM Assay

inhibition [1] | inhibition [2] | SMILES | fold change (FC) (K652)
– | – | CN(C)[C@@H](CC(C)(C)C)C(=O)N1Cc2ccccc2C[C@H]1C(=O)NCCCC[C@@H](NC(=O)[C@@H]1Cc2ccccc2CN1C(=O)[C@H](CC(C)(C)C)N(C)C)C(N)=O | 2
Active | Active | CN(C)[C@@H](CC(C)(C)C)C(=O)N1Cc2ccccc2C[C@H]1C(=O)NCCCC[C@H](NC(=O)[C@@H]1Cc2ccccc2CN1C(=O)[C@H](CC(C)(C)C)N(C)C)C(N)=O | 2
